One compound from article PMC6222997, “Cloning, purification, and characterization of an organic solvent-tolerant chitinase, MtCh509, from Microbulbifer thermotolerans DAU221” (Biotechnology for Biofuels, 2018) can be followed below.

In this assay the target is T1, MtCh509 (Microbulbifer thermotolerans, UniProt A0A143HNF3).
T1 construct: gene A3224_11035; full-length precursor 509 aa; cloned without signal peptide, N-terminal His6 (pCold I), E. coli BL21(DE3); ~60 kDa; GH18 catalytic domain plus ChtBD3
Kind of assay: TLC of hydrolysis products. The class given is biochemical. Particulars: 50 mM citrate buffer pH 5.0, 55 °C; 0.3 μg enzyme.

T1 sequence (A0A143HNF3 entry or part of it): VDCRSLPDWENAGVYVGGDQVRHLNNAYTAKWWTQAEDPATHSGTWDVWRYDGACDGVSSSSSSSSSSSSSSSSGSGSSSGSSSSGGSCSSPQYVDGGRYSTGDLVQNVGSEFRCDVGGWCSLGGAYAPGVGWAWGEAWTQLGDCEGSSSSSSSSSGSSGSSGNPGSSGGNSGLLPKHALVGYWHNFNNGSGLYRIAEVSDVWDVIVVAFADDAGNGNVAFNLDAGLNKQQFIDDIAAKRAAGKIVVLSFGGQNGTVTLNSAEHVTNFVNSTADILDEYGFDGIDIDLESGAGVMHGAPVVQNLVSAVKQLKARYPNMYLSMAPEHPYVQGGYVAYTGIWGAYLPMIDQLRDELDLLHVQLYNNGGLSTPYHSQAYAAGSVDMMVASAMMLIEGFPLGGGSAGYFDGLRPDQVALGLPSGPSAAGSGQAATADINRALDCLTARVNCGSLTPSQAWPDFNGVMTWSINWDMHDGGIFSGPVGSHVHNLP

For `CC(=O)N[C@H]1[C@H](O[C@H]2[C@H](O)[C@@H](NC(C)=O)[C@H](O[C@H]3[C@H](O)[C@@H](NC(C)=O)C(O)O[C@@H]3CO)O[C@@H]2CO)O[C@H](CO)[C@@H](O[C@@H]2O[C@H](CO)[C@@H](O[C@@H]3O[C@H](CO)[C@@H](O[C@@H]4O[C@H](CO)[C@@H](O)[C@H](O)[C@H]4NC(C)=O)[C@H](O)[C@H]3NC(C)=O)[C@H](O)[C@H]2NC(C)=O)[C@@H]1O` (stereo partly shown) [NAG6], the “TLC of hydrolysis products” value is “NAG6 (Fig. 5E) was finally degraded to NAG3 and NAG2”.
